In US20180369195A1, “COMBINATION THERAPY FOR TREATMENT OF MELANOMA” (The Regents of the University of California, priority 2015, published 2018):

What was measured:
[1] = tested on: normal epidermal melanocytes; assay: CCK-8 proliferation assay, normal epidermal melanocytes; format: cell-based; conditions: 1-benzyl I3C treatment
[2] = tested on: CDK 2, 4, 6; assay: Western blot of key cell cycle regulators; format: cell-based, human; conditions: melanoma cell lines, 1-benzyl I3C, 24, 48, 72 hours
Method: (§1) Western Blot analyses of samples electrophoretically fractionated on 12% acrylamide gels were carried out as previously described (Wagle et al., J. Clin. Oncol. 2011. 29(22):3085-3096; Nguyen et al., Chem. Biol. Interact. 2010. 186(3):255-266). Enhanced chemiluminescence (ECL) Lightening reagents were used to visualize the primary antibody bound protein bands in nitrocellulose membranes and the results captured on ECL Autoradiography Film (GE Healthcare, Piscataway, N.J.). The western blots employed the following primary antibodies: mouse anti-MITF-M (Thermo-scientific), mouse anti-HSP 90 (BD Biosciences), mouse anti-CDK2, rabbit anti-CDK4, rabbit anti-CDK-6, mouse anti-rabbit BRAF, goat anti-LEF-1, rabbit anti-AXIN, mouse anti-BCL2, (Santa Cruz), rabbit anti-P21, mouse anti-Cyclin D1, rabbit anti-MEK-p, rabbit anti-MEK1/2, rabbit anti-GSK3β rabbit anti-LRP6, rabbit anti-LRP6-phospho (Cell signaling), mouse anti-β-catenin (Invitrogen).

[3] = tested on: LRP5/6; assay: Western blot of Wnt co-receptor; format: cell-based, human; conditions: melanoma cell lines, 20 μM 1-benzyl I3C
Method: as §1

[4] = tested on: LEF1; assay: Chromatin immunoprecipitation, LEF1 at MITF-M promoter; format: cell-based, human; conditions: G361 cells, 20 μM 1-benzyl I3C, 48 hours
[5] = tested on: β-catenin; assay: Western blot of β-catenin; format: cell-based, human; conditions: G-361, DM-738, SK-MEL-2 cells, 20 μM 1-benzyl I3C, 24, 48 and 72 hours
Description: The western blots employed the following primary antibodies: mouse anti-MITF-M (Thermo-scientific), mouse anti-HSP 90 (BD Biosciences), mouse anti-CDK2, rabbit anti-CDK4, rabbit anti-CDK-6, mouse anti-rabbit BRAF, goat anti-LEF-1, rabbit anti-AXIN, mouse anti-BCL2, (Santa Cruz), rabbit anti-P21, mouse anti-Cyclin D1, rabbit anti-MEK-p, rabbit anti-MEK1/2, rabbit anti-GSK3β rabbit anti-LRP6, rabbit anti-LRP6-phospho (Cell signaling), mouse anti-β-catenin (Invitrogen).

[6] = biological target: T1, BRAF-V600E (Homo sapiens, UniProt P15056, V600E); assay: In vitro BRAF kinase assay, in-vitro treated BRAF-V600E from G-361 cells; format: biochemical; conditions: pre-incubated 2 hours; 200 μM or 400 μM I3C
T1 construct: BRAF-V600E was immunoprecipitated from untreated G-361 cells and incubated in vitro; endogenous in cells; host or cells: G-361 human melanoma cells (ATCC)
Method: BRAF was pulled down from the cell lysates using anti-BRAF antibodies bound to protein G-coupled Sepharose beads, while IgG was used as a negative control. Post-immunoprecipitation supernatants were probed with anti BRAF antibody by western blots to determine pull-down efficiency. […] The reactions were terminated by adding 4× sodium dodecyl sulfate (SDS) sample buffer and boiling the mixture at 100° C. for 5 min. The samples were then electrophoresed, immunoblotted and probed for relative protein levels of phosphorylated MEK and total MEK to assess the kinase activity of the immunoprecipitated BRAF.

[7] = tested on: BRN2; assay: Immunofluorescence of BRN2 localization; format: cell-based, human; conditions: G-361 cells, 200 μM I3C, 48 hours
[8] = tested on: MITF-M; assay: Immunofluorescence of tumor xenograft sections for MITF-M; format: in vivo, human; conditions: I3C 200 mg/kg, terminal sacrifice, relative to vehicle
Method: (§2) Approximately 1 million G361 melanoma cells in a total volume of 0.1 ml of Matrigel were injected subcutaneously into each lateral flank of NIH III athymic nude mice. The resulting tumors were allowed to grow to a mean starting volume of 146±10 mm^3. The animals were then randomized into two groups; a vehicle control group that was treated with DMSO and an […] treated group that were injected daily with 200 mg/kg body weight of […]. The resulting tumor volumes were measured every other day for four weeks using calipers. The tumor volumes were calculated using the standard formula: […], and changes in tumor volumes were calculated using the formula: 100+{(Tf-Ti)/Ti×100}, where Tf is the final mean tumor volume and Ti is the initial mean tumor volume. At terminal sacrifice, tumor xenografts were harvested, and a portion of each tumor was fixed in 4% para-formaldehyde for 1 hour at room temperature, followed by a phosphate-buffered saline (PBS) wash and subsequently immersed in 3% sucrose overnight at 4° C. The resulting tissues were embedded in OCT and 10 μm thin sections were taken for immunofluorescence studies.

[9] = tested on: RPMI-7951 cells; assay: CCK-8 proliferation assay, RPMI-7951; format: cell-based, human; conditions: 200 μM I3C, 72 hours; BRAF-V600E
Method: Cells were treated with 20 μM 1-benzyl I3C every 24 hours for 72 hours and harvested at 24, 48 and 72 hours for western blot and flow cytometric analysis. […] Subsequently inhibition of proliferation was assessed using Cell counting Kit-8 (Dojindo) as per the protocol in the user's manual. Briefly, 50 μl of the CCK-8 solution was added to each well along with 450 μl media and incubated for 2-3 hours. The absorbance was read at 450 nm and % inhibition was calculated for each condition standardizing DMSO to zero using the formula: [(100−Value of treatment/Value of DMSO treated control)×100]

[10] = tested on: phosphorylated Erk/MAPK; assay: Immunofluorescence of tumor xenograft sections for ERK-p; format: in vivo, human; conditions: I3C treated vs untreated animals
Method: as §2

[11] = tested on: BRN2; assay: Chromatin immunoprecipitation, BRN2 at MITF-M promoter; format: cell-based, human; conditions: G-361 cells, 200 μM I3C, 48 hours
Method: […] Proteins were crosslinked to DNA by the addition of formaldehyde at 2.5% of the final concentration for 5 minutes at room temperature to cultured cells. Fixation was quenched with glycine for a final concentration of 125 mmol/1 for 5 minutes. Harvested cells were sonicated and the chromatin was immunoprecipitated overnight and 15 μl of mouse anti-Brn2 antibodies (Santa Cruz Biotechnology) was added to the cell lysates to immunoprecipitate the chromatin-bound Brn2 protein. A fragment of the MITF-M promoter (−170+120) containing the BRN2 binding site (−53 to −27) was amplified using the primers—MITF-M Forward: 5′-CGTCACTTAAAAAGGTACCTTTATATTTATG-3′ (SEQ ID NO:7) MITF-M Reverse: 5′-TGT TTTAGC TAGCACCAATCCAGTGAGAGACGG-3′ (SEQ ID NO:8) by cycling 36 times (95° C., 30 s/52° C. 30 s/72° C., 30 s) with a 72° C., 10 min extension. The PCR products were electrophoretically fractionated on a 1.5% agarose gel and visualized using a transilluminator.

T1 sequence (P15056 whole entry V600E): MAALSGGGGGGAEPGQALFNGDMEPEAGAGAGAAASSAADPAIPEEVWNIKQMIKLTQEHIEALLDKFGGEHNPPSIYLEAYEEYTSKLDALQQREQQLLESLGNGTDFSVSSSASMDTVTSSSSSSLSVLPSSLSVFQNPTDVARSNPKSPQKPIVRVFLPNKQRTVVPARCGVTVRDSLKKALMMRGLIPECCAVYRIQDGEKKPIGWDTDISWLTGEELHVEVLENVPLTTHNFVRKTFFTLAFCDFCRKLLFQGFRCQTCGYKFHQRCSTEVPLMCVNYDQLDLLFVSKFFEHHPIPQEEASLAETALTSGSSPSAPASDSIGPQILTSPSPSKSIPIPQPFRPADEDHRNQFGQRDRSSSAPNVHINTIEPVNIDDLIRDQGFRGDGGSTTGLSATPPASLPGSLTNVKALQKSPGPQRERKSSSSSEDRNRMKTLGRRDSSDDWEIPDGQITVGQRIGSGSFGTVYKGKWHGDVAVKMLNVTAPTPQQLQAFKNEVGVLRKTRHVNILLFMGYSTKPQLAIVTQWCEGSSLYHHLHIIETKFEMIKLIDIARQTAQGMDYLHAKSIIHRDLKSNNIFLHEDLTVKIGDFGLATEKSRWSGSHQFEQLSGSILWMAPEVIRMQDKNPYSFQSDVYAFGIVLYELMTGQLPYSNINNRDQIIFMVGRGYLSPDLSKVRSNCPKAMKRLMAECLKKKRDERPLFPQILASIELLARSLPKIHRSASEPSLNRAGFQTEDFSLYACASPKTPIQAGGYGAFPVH

Structure (SMILES): OCc1cn(Cc2ccccc2)c2ccccc12 [1-benzyl I3C, 1-benzyl indole-3-carbinol]
- antiproliferative response [1]: No such antiproliferative response
- levels of key cell cycle regulators [2]: downregulation of key cell cycle regulators like CDK 2, 4, 6
- LRP5/6 levels [3]: significantly downregulated
- LEF1 interactions with the MITF-M promoter [4]: significantly disrupted nuclear LEF1 interactions with this promoter
- β-catenin protein levels [5]: significantly downregulated

Structure (SMILES): OCc1c[nH]c2ccccc12 [I3C, indole-3-carbinol]
- BRAF-V600E activity (phosphorylated MEK), direct in vitro incubation [6]: strongly down regulated BRAF-V600E activity
- nuclear localization of BRN2 [7]: disrupted the nuclear localization of Brn2
- MITF-M protein in tumor xenograft sections [8]: strong down-regulation of MITF-M protein
- sensitivity to anti-proliferative effects [9]: Most sensitive
- level of phosphorylated Erk/MAPK in tumor xenografts [10]: strongly down regulated
- endogenous BRN2 binding to the MITF-M promoter [11]: significantly down regulated endogenous BRN-2 interactions with this promoter
